Consider 2 compounds from patent US9446147B2, “Membrane stabilizing compositions and methods” (The Ohio State University, priority 2011, dated 2016).

Data set [1] in a line: lyophilization and rehydration of calcein-loaded LUVs (contents loss, DLS, cryo-TEM). Format: physicochemical. To be noted: used in place of cholesterol glycopolymer 8 in DPPC or hydrogenated ePC LUVs. Here is the method:
(§1) The anhydrobiotic membrane preservation properties of the trehalose polymers on supported lipid bilayers (SLBs) were tested. […] Moreover, lyophilized calcein-loaded trehalose-polymer vesicles could be rehydrated without contents loss and maintenance of vesicle size distribution. The cryo-preservative effects of trehalose and other sugars on proteins and membrane structures has been known for some time, though high solution concentrations are required; here we find that preservative properties at mole ratios of about 10% to about 30%. This preservative property permits long-term anhydrous storage of reagents without compromising therapeutic effect. Thus, membrane-anchored polysaccharides may be a useful biotechnology tool for production of systemic drug carriers that are stable to attack from serum proteins, dehydration and freeze-drying.
Sugar solutions (10:1 sugar:lipid) are known to protect LUVs from contents loss and fusion upon lyophilization and rehydration. It was find that covalent presentation of polymeric trehalose on multiple lipid anchors confers significant membrane anhydrobiotic and cryo-protection at sugar:lipid ratios of 0.1-0.3. […] LUVs containing phospholipid glycodimer 7 and phospholipid glycopolymer 9 readily deposited, possibly by virtue of higher membrane fluidity.

Data set [2] can be described thus: contents release assay of calcein-loaded vesicles in fetal bovine serum. Format: in vitro ADME. To be noted: vesicles of 80% DPPC and 20% dimer. The source says: […] Vesicle stabilization by the glycolipid derivatives was strongly affected by degree of oligomerization and solubility. […] Though there is clearly an advantage to structures larger than a dimer, larger oligomer or polymers may be limited by their ability to incorporate into the lipid membrane. Thus, it was difficult to achieve mole percent incorporation levels higher than 10% for phospholipid glycopolymer 9 and 30% for cholesterol glycopolymer 8.

Data set [3] can be described thus: dehydration-rehydration of supported lipid bilayers (SLBs), microscopy and FRAP. The format is physicochemical. To be noted: supported lipid bilayers on glass. The procedure:
as §1
FIGS. 10A and 10B are photomicrographs of supported lipid bilayers containing (A) phospholipid dimer 7 or (B) phospholipid polymer. The mole percent is as indicated. The top rows of (A) and (B) show freshly formed SLBs; whereas the bottom rows show SLBs after drying and rehydration. The photos were taken at 10× magnification and the scale bar is 100 μm. FIGS. 10C and 10D show FRAP containing SLBs with 10% phospholipid polymer before and after dehydration, respectively. These photos were taken at 40× magnification and the scale bar is 40 μm.

Turning to `CC(C)CCC[C@@H](C)[C@H]1CC[C@H]2[C@@H]3CC=C4C[C@@H](O)CC[C@]4(C)[C@H]3CC[C@]12C` [cholesterol], the “contents loss and fusion after lyophilization and rehydration” value in data set [1] was “total contents loss and extensive fusion”.
As for “trehalose cholesterol thioglycolate thioether dimer”, the “contents loss upon exposure to serum” value in data set [2] is recorded as “greatly minimized”. Further, the “protection of SLBs from delamination on drying/rehydration” value in data set [3] is recorded as “protect supported lipid bilayers from delamination upon drying”.
